Patent publication EP1136554A1, “ATP binding cassette transporter 1 (ABC1) gene polymorphisms and uses thereof for the diagnosis and treatment of lipid disorders, cardiovascular diseases and inflammatory diseases” (Bayer Aktiengesellschaft, priority 2000, dated 2001)

Columns and labels:
IL-1β secretion = test: IL-1β processing and secretion; type: cell-based; conditions: result in words
neutral sphingomyelinase = test: Ceramide formation from sphingomyelin; type: cell-based; conditions: result in words
human fibroblasts = test: Cell cycle arrest in fibroblasts; type: cell-based; conditions: result in words
mononuclear phagocytes [1] = test: ApoA-I mediated cellular cholesterol efflux (14C-cholesterol, E-LDL loaded monocytes); type: cell-based, Human; conditions: men and women, percent of basal unstimulated efflux
Procedure: Cellular Lipid Efflux. Human peripheral blood cells were isolated from lithium-heparin treated blood samples of adult, healthy volunteers. The peripheral blood mononuclear cell fraction was separated by density gradient centrifugation over Ficoll-Histopaque […] (Sigma). Cells positive for CD2, CD7, CD16, CD19 and CD56 were removed by appropriate magnetic beads (Dynal) leaving > 80% pure monocytes. Isolated monocytes were then cultured at a density of 1.5x10^5 cells/mL in polystyrene culture dishes (100x15mm Petri dish, Falcon) in a serum-free macrophage medium (Macrophage-SFM, Gibco Life Technologies) supplemented with 50ng/mL human recombinant M-CSF (R&D Systems). After an overnight incubation cells were cholesterol loaded for 24 hrs by addition of enzymatically modified LDL (E-LDL; 40 µg/ml), which was prepared as previously described (31). […] Lipids were extracted by liquid extraction according to the method of Bligh and Dyer (13). ^3H and ^14C radioactivities of the total lipid extracts were measured by liquid scintillation counting in order to distinguish between ^3H labeled phospholipids and ^14C-cholesterol. Lipid efflux was calculated as percentage of disintegrations per minute (dpm) in medium divided by the sum of dpm recovered from medium and cells. […]

mononuclear phagocytes [2] = test: ApoA-I mediated cellular phospholipid efflux (3H-choline labelled phospholipids); type: cell-based, Human; conditions: men and women, percent of basal unstimulated efflux
Procedure: Cellular Lipid Efflux. Human peripheral blood cells were isolated from lithium-heparin treated blood samples of adult, healthy volunteers. The peripheral blood mononuclear cell fraction was separated by density gradient centrifugation over Ficoll-Histopaque […] (Sigma). Cells positive for CD2, CD7, CD16, CD19 and CD56 were removed by appropriate magnetic beads (Dynal) leaving > 80% pure monocytes. Isolated monocytes were then cultured at a density of 1.5x10^5 cells/mL in polystyrene culture dishes (100x15mm Petri dish, Falcon) in a serum-free macrophage medium (Macrophage-SFM, Gibco Life Technologies) supplemented with 50ng/mL human recombinant M-CSF (R&D Systems). After an overnight incubation cells were cholesterol loaded for 24 hrs by addition of enzymatically modified LDL (E-LDL; 40 µg/ml), which was prepared as previously described (31). The incubation medium was further supplemented with ^14C-cholesterol (1.5 µCi/ml) and ^3H-choline (10µCi/ml) in order to label cellular cholesterol and choline containing phospholipids. In a subset of experiments cells were stimulated with 10 µM forskolin during the labeling period. After 24 hrs monocytes were washed and incubated for 17 hrs with or without 10 µg/ml ApoA-I (Sigma) in macrophage medium containing 0.1 % bovine serum albumin and 50ng/mL M-CSF. After incubation the media were removed and centrifuged at 800 x g to precipitate any detached cells. Cells were lysed in 0.2% SDS. Lipids were extracted by liquid extraction according to the method of Bligh and Dyer (13). ^3H and ^14C radioactivities of the total lipid extracts were measured by liquid scintillation counting in order to distinguish between ^3H labeled phospholipids and ^14C-cholesterol. Lipid efflux was calculated as percentage of disintegrations per minute (dpm) in medium divided by the sum of dpm recovered from medium and cells. The ApoA-I specific efflux is expressed a percent of basal unstimulated efflux observed in serum-free macrophage medium without ApoA-I.

Row | Compound | Caspase I mediated processing of pro-IL-1β (IL-1β secretion) | release of mature IL-1β (IL-1β secretion) | ceramide formation from sphingomyelin mediated by neutral sphingomyelinase (neutral sphingomyelinase) | G2-phase cell cycle arrest (human fibroblasts) | Cholesterol efflux: ApoA-I [10 µg/ml]+ 24 h pretreatment with forskolin [10 µM] (mononuclear phagocytes [1]; 596A/A) [%] | Cholesterol efflux: ApoA-I [10 µg/ml]+ 24 h pretreatment with forskolin [10 µM] (mononuclear phagocytes [1]; wt/wt 596G/G, 2589A/A) [%] | Phospholipid efflux: ApoA-I [10 µg/ml]+ 24 h pretreatment with forskolin [10 µM] (mononuclear phagocytes [2]; 596A/A) [%] | Phospholipid efflux: ApoA-I [10 µg/ml]+ 24 h pretreatment with forskolin [10 µM] (mononuclear phagocytes [2]; 2589G/G) [%] | Phospholipid efflux: ApoA-I [10 µg/ml]+ 24 h pretreatment with forskolin [10 µM] (mononuclear phagocytes [2]; wt/wt 596G/G, 2589A/A) [%]
1 | COc1ccc(Cl)cc1C(=O)NCCc1ccc(S(=O)(=O)NC(=O)NC2CCCCC2)cc1 [glyburide] | inhibits | inhibits | inhibits | releases human fibroblasts from G2-phase cell cycle arrest |  |  |  |  | 
2 | C=C[C@@]1(C)CC(=O)[C@]2(O)[C@@]3(C)[C@@H](O)CCC(C)(C)[C@@H]3[C@H](O)[C@H](OC(C)=O)[C@@]2(C)O1 [forskolin] |  |  |  |  | 126.7 ± 37.4 | 121.8 ± 16.4 | 136.7 ± 12.8 | 124.5 ± 25.8 | 135.4 ± 20.2
